Measured values as given in patent US20220054561A1, “LACHNOSPIRACEAE MITIGATES AGAINST RADIATION-INDUCED HEMATOPOIETIC/GASTROINTESTINAL INJURY AND DEATH, AND PROMOTES CANCER CONTROL BY RADIATION” (priority 2018, published 2022).

Tests used:
Assay type in all cases: in vivo, mouse
[1] = system: SPF mice; experiment: Tryptophan metabolites treatment and lethal radiation; details: lethal radiation, monitored 30 days
Description: Metabolite profiles were measured in fecal samples of AM-Ctrl and ES mice at Day 290 post TBI. Total ion chromatogram (TIC) metabolomic cloudplot (p<0.01) (FIG. 14A) and PCA score plot (14B) show distinct metabolites separation between these two groups. […] In FIG. 14D, metabolic network graphs (MetaMapp) were generated to integrate the biochemical pathways and chemical relationships of all detected metabolites. Identified metabolites are represented by circle nodes, with lower transparency indicating lower p-values from Welch's t-test. Lighter grey nodes denote metabolites with higher abundance in ES group; darker grey nodes denote those higher in AM-Ctrl group. Solid grey lines connecting distinct metabolites symbolize KEGG reactant pair links; dashed grey lines symbolize chemical similarity with a Tanimoto coefficient score >0.7. Tryptophan metabolites are highlighted by a large shadow (labelled), while other metabolite families are distinguished by separate shadowed areas. FIG. 14E is a schematic of tryptophan metabolites treatment. Survival rates (FIG. 14F) and clinical scores (FIG. 14G) were monitored for 30 days. Error bars show SEM, *p<0.05, **p<0.01, ***p<0.001 determined by log-rank (Mantel Cox) test (FIG. 14F) and Mann-Whitney test for area under the curve (AUC) (FIG. 14G). […]

[2] = system: SPF C57BL/6 mice; experiment: Acetate, butyrate or propionate supplemented water for 8 weeks followed by lethal dose TBI
From the text: FIG. 11A is a schematic of short chain fatty acids (SCFAs) treatment. Survival rates (FIG. 11B) and clinical scores (FIG. 11C) were monitored for 30 days. Femurs and spleens were stained for H&E and quantified for BM cellularity and spleen EMH scores (FIG. 11D). White pulp (WP, black dash circles), red pulp (RP, area between black solid lines), and megakaryocytes (black arrows) are shown. […] Total CMP, GMP and MEP percentages of Lin^− cells are shown in the right histogram. Representative images are shown. Mucus layer is indicated by area between dash lines and crypt length is indicated by double-headed arrow. Mucus layer thickness and crypt length were quantified. Error bars show SEM, *p<0.05, **p<0.01, *** p<0.001 determined by log-rank (Mantel Cox) test (B), Mann-Whitney test for area under the curve (AUC) (C) and Student's t test (D, E, F).
SPF C57BL/6 mice were treated with acetate, butyrate or propionate supplemented water for 8 weeks respectively, followed by a lethal dose TBI (FIG. 11A). […] To examine the effect of propionate on the gastrointestinal system, Alcian blue and periodic acid-Schiff (AB/PAS) staining of all intracellular mucin glycoproteins within goblet cells was completed.

[3] = system: SPF C57BL/6 mice; experiment: Butyrate contained water for 8 weeks followed by total body irradiation; details: butyrate water 8 weeks, TBI; control recipients 43%
Description: Butyrate production was determined by Mass Spectrometry from Non-TBI controls versus LL-TBI survivors (FIG. 7A), Control Recipients versus Survivor Recipients from dirty cage sharing expt. as shown in FIG. 2A (FIG. 7B), Control Recipients versus Survivor Recipients from FMT in GF mice expt. as shown in FIG. 4A (FIG. 7C). FIG. 7D includes a schematic of butyrate treatment of 6-8 weeks SPF C57BL/6 mice. After 8 weeks of butyrate treatment, recipients received total body irradiation. Survival rates (FIG. 7E), clinical scores (FIG. 7F), body weight changes (FIG. 7G) and body temperatures (FIG. 7H) were monitored for 30 days post TBI. (Control Recipients, n=14; Butyrate Recipients, n=16).
It is well established that Clostridiales and Lachnospiraceae bacterial groups produce short chain fatty acids (SCFAs) via fermentation of dietary polysaccharides^32-34. SCFAs especially butyrate, which is the most commonly studied SCFA, are important substrates for maintaining intestinal epithelium and play a role in regulating immune system and inflammatory response. Increased abundance of Lachnospiraceae is expected to enhance the capability to produce SCFAs. To validate this hypothesis, the concentrations of lactate, propionate, isobutyrate and butyrate were detected in each individual Lachnospiraceae strain within the disclosed 23 stains pool. […]

O=Cc1c[nH]c2ccccc12 [I3A, indole-3-carboxaldehyde]
survival rates [1]: around 75%

O=C(O)c1cc(=O)c2ccccc2[nH]1 [KYNA, kynurenic acid]
survival rates [1]: around 75%

CC(=O)O [acetate]
protection (survival, clinical scores) ([2]; supplemented water 8 weeks, lethal dose TBI): slight protection

CCCC(=O)O [butyrate]
thirty-day survival rate [3]: 68%

CCC(=O)O [propionate]
bone marrow cellularity ([2]; H&E femurs): Elevated bone marrow cellularity | mucus thickness and crypt length ([2]; colon AB/PAS staining, versus control): significantly increased | total Sca1−cKit+ progenitor cells (GMP, CMP, MEP) in BM ([2]; flow cytometry, versus control recipients): significant increase | Thirty-day survival rates ([2]; supplemented water 8 weeks, lethal dose TBI, control group 28%): 79% | clinical scores ([2]; versus control group): lower clinical scores
